Test results taken from the NIST ThermoML archive (doi:10.1021/je060411g).

Experiment: molar heat capacity at constant pressure
Details: 101.33 kPa, Crystal 2

CC(C)(C)CO [2,2-dimethyl-1-propanol]
Details | molar heat capacity at constant pressure [J/K/mol]
65 K | 49.1
70 K | 49.5
75 K | 54.63
80 K | 58.6
85 K | 61.31
90 K | 64.25
95 K | 66.91
100 K | 69.96
105 K | 72.8
110 K | 75.58
120 K | 81.21
130 K | 86.6
140 K | 91.85
150 K | 97.11

Vacuum adiabatic calorimetry
Details | molar heat capacity at constant pressure [J/K/mol]
65.21 K | 49.05
67.11 K | 48.13
69.02 K | 47.57
70.93 K | 51.84
72.82 K | 53.62
74.71 K | 54.48
76.62 K | 55.54
78.53 K | 57.23
80.43 K | 58.98
82.34 K | 59.82
84.25 K | 60.91
86.17 K | 61.94
88.09 K | 63.01
90.01 K | 64.26
91.94 K | 65.3
93.72 K | 66.04
93.87 K | 66.34
93.99 K | 65.67
95.11 K | 67.03
95.8 K | 67.7
97.08 K | 68.3
97.74 K | 68.54
99.03 K | 69.37
99.68 K | 69.74
100.97 K | 70.67
102.92 K | 71.57
104.87 K | 72.73
106.82 K | 73.77
108.77 K | 74.92
110.72 K | 75.98
112.68 K | 77.06
114.63 K | 78.14
116.59 K | 79.23
118.55 K | 80.35
120.51 K | 81.5
122.47 K | 82.44
124.43 K | 83.56
126.39 K | 84.65
128.36 K | 85.69
130.32 K | 86.79
131.73 K | 87.42
132.15 K | 87.41
132.29 K | 87.89
133.36 K | 88.24
134.27 K | 88.87
135.34 K | 89.35
136.24 K | 89.94
137.31 K | 90.43
139.28 K | 91.45
141.25 K | 92.54
143.22 K | 93.56
145.19 K | 94.64
147.17 K | 95.67
149.14 K | 96.7
151.11 K | 97.64
153.09 K | 98.81
